Test results reported in PMC7356297, “Bicyclic Boronates as Potent Inhibitors of AmpC, the Class C β-Lactamase from Escherichia coli” (Biomolecules, 2020).
Values joined by “and” are separate entries in the source; they are usually repeats but may differ in a detail not shown here. Equal values may be shown once.

Legend:
[1] = target: T1, AmpC from Escherichia coli (AmpCEC) (Escherichia coli, UniProt P00811); assay type: biochemical; settings: half-life of the enzyme-inhibitor complex, ln2/koff
T1 construct: made in house; host or cells: E. coli W3110 (pAD7 vector)
T1 sequence (P00811 20-377): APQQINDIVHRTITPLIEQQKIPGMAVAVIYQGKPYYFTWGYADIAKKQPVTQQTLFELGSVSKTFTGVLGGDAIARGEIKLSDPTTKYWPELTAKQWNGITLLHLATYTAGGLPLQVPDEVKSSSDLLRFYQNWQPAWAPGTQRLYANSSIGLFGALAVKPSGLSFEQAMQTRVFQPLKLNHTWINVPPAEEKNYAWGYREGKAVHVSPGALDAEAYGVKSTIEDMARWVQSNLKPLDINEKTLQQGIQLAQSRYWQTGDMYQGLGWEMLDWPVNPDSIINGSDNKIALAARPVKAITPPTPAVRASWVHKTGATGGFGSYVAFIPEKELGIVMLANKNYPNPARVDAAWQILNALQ
Description: (§1) All kinetic measurements were carried out in competition assays using the fluorescent substrate FC-5 [36] under steady-state conditions monitoring hydrolysis, in 100 mM phosphate buffer pH 7.5 supplemented with 0.01% (v/v) Triton X-100 (Assay Buffer). Fluorescence was measured using a PHERAstarFS (BMG Labtech, Aylesbury, United Kingdom) plate-reader, recording emission spectra at λex = 380 nm and λem = 460 nm. IC50s were determined after 10 min incubation time of 500 pM AmpCEC with varying concentrations of inhibitors and assayed using 5 µM FC-5. Nonlinear regression analyses were carried out using GraphPad Prism V. 5.04 (GraphPad Software, San Diego, CA, USA).
Off rates (k-2 or koff) were measured using the jump-dilution method (Figure S1c). AmpCEC (1 µM) was incubated with the respective inhibitor (10 µM for TAN, CB2 and CB3, and 100 µM for VAB) for 30 min at room temperature, then diluted 100,000 fold in the Assay Buffer (final enzyme concentration: 10 pM) and immediately assayed with 25 µM FC-5. The data were fitted to Equation (2) with V0 in this case representing the velocity of the no-enzyme control and VS representing the initial velocity of uninhibited enzyme.
The half-life of the enzyme-inhibitor complex t1/2 is given by Equation (6):(6) t1/2=ln2/koff

[2] = test system: DH5α E. coli containing the pAD7-AmpCEC plasmid; assay: Broth microdilution MIC of ceftazidime alone or with inhibitor, AmpCEC producing strain; assay type: cell-based, Escherichia coli
Description: (§2) Minimum inhibitory concentrations (MICs) were determined by broth microdilution in triplicate and interpreted using published Clinical and Laboratory Standards Institute (CLSI) guidelines.
(§3) Ceftazidime (CAZ) was tested alone (0.25–256 μg mL^−1) against DH5α Escherichia coli and DH5α E. coli containing the pAD7-AmpCEC plasmid and in combination with CB2, CB3, TAN, and VAB (all tested at a fixed concentration of 4 μg mL^−1) using the DH5α E. coli strain containing the pAD7-AmpCEC plasmid.

[3] = target: T1, AmpC from Escherichia coli (AmpCEC); assay: Steady-state competition kinetics of AmpCEC (100 nM) with fluorescent substrate FC-5 (Kiapp, k2/K); assay type: biochemical; settings: for Ki: Kiapp, apparent inhibition constant corrected with KM of FC-5; for kinact/KI: pH 7.5, read-out: k2/K, 100 nM AmpCEC, 5 µM FC-5
Description: as §1
As described for avibactam inhibition, the kinetics of bicyclic boronate inhibition of β-lactamases can be described assuming a two-step, reversible inhibition model:(1) E+I → k1 ←k−1 E:I → k2 ←k−2 E−I with E: enzyme; I: inhibitor; k1: association rate constant; k−1: dissociation rate constant; k2: binding rate constant, and k−2: recyclization rate constant.
To obtain the pseudo first-order rate constant kobs and the apparent inhibition constant Kiapp, the rate of FC-5 (5 µM) hydrolysis by AmpCEC (100 nM) was measured in the presence of varying concentrations of the inhibitor.
Plotting the resultant kobs values against the inhibitor concentration [I] (Figure S1b) and fitting to Equation (3) gives the apparent second-order rate constant (k2/K’) (3) kobs=k2+k2/K^′∗ I with K’ representing the equilibrium coefficient of AmpCEC inhibition in the presence of FC-5 in the set concentration of 5 µM.
This can then be corrected using the Michaelis constant (KM) of FC-5 for AmpCEC and the FC-5 concentration [S] according to Equation (4) to give the second-order rate constant (k2/K):(4) k2/K=k2/K^′∗ S/KM+1
The same data were used to determine the apparent inhibition constant Kiapp. The reciprocals of the initial rates were plotted against inhibitor concentration (Figure S1a), giving a straight line for which the value of the intercept divided by the slope gives Kiapp’. From this, Kiapp can be obtained after correction with the KM for FC-5 according to Equation (5):(5) Kiapp=Kiapp’/1+S/KM

[4] = target: T1, AmpC from Escherichia coli (AmpCEC); assay: IC50 determination, 500 pM AmpCEC, 5 µM FC-5, 10 min pre-incubation; assay type: biochemical; settings: pIC50, 500 pM AmpCEC, 5 µM FC-5, 10 min inhibitor pre-incubation at room temperature
Description: as §1

DH5α Escherichia coli = assay: Broth microdilution MIC of ceftazidime, strain without plasmid; assay type: cell-based; settings: read-out: Minimum Inhibitory Concentration Ceftazidime
Description: as §2, §3

| Compound | t1/2 [1] [min] | Minimum Inhibitory Concentration Ceftazidime (CAZ + inhibitor) ([2]; CAZ in combination with the inhibitor at a fixed concentration of 4 µg mL^−1, DH5α pAD7 AmpCEC) [µg/mL] | Ki ([3]; 100 nM AmpCEC, 5 µM FC-5) | kinact/KI ([3]; second-order rate constant) [M⁻¹ s⁻¹] | IC50 [4] | k2/K ([3]; 100 nM AmpCEC, 5 µM FC-5, second-order rate constant) [M^−1 s^−1 × 10^3] | MIC (DH5α Escherichia coli) [µg/mL] | MIC ([2]; Escherichia coli, read-out: Minimum Inhibitory Concentration Ceftazidime) [µg/mL] |
| --- | --- | --- | --- | --- | --- | --- | --- | --- |
| O=C(O)c1cccc2c1OB(O)C(SCc1ccccc1)C2 (centres unmarked) [CB3] | 0.55 ± 0.34 | 4 | 1000 nM and 1160 nM | 224000 ± 21000 | 29.5 nM | – | – | – |
| NCc1ccc(C(=O)N[C@H]2Cc3cccc(C(=O)O)c3OB2O)cc1 [CB2] | 4.18 ± 0.41 | – | 3000 nM and 3260 nM | 81000 ± 6400 | 31.6 nM and 32.4 nM | – | – | – |
| NCCN[C@H]1CC[C@H](CC(=O)N[C@H]2Cc3cccc(C(=O)O)c3OB2O)CC1 [TAN, taniborbactam] | 4.55 ± 0.91 | – | 4000 nM and 3730 nM | 85600 ± 9200 | 29.5 nM | – | – | – |
| O=C(O)C[C@@H]1CC[C@H](NC(=O)Cc2cccs2)B(O)O1 [VAB, vaborbactam] | 16.8 ± 0.7 | – | 19000 nM and 19100 nM | ~7000 | 501 nM and 479 nM | 6.55 ± 0.46 | – | – |
| CC(C)(O/N=C(\C(=O)N[C@@H]1C(=O)N2C(C(=O)[O-])=C(C[n+]3ccccc3)CS[C@H]12)c1csc(N)n1)C(=O)O [CAZ, Ceftazidime] | – | – | – | – | – | – | 1 | 256 |
